In EP4122499A1, “FIBROBLAST ACTIVATION PROTEIN INHIBITORS AND USE THEREOF” (3B Pharmaceuticals GmbH, priority 2021, dated 2023):

Legend:
[1] = molecular target: T1, FAP-expressing human WI-38 fibroblasts (Homo sapiens, UniProt Q12884); experiment: Competitive FACS binding assay (displacement of Cy5-labeled FAP inhibitor 3BP-2935); conditions: 3 nM Cy5-labeled 3BP-2935, 4°C, 1 hour
T1 construct: FAP-expressing human WI-38 fibroblasts (ECACC 90020107) were cultured in EMEM; host or cells: WI-38 human fibroblasts
T1 sequence (Q12884 1-760): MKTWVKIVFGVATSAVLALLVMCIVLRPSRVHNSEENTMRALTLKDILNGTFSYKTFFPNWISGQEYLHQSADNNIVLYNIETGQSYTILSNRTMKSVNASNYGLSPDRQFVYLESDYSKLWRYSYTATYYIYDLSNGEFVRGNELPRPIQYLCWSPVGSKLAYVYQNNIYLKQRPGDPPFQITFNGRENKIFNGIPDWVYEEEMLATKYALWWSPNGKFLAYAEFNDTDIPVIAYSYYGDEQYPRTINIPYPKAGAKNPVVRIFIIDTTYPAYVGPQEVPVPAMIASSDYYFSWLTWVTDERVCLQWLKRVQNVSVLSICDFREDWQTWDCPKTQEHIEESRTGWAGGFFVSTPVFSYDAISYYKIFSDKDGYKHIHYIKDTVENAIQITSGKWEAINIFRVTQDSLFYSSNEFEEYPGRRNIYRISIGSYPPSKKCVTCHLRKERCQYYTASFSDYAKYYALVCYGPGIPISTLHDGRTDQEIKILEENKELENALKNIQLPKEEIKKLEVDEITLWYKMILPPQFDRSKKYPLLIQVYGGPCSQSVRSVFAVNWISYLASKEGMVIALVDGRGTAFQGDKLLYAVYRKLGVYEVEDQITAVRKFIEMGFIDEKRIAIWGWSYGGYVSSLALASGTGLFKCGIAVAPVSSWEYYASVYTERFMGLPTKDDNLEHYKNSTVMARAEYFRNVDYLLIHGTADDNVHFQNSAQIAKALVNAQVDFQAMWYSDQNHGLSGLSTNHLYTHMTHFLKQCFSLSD

Recombinant human DPP4 = molecular target: T2, Recombinant human DPP4 (Homo sapiens, UniProt P27487); experiment: DPP4 protease activity assay; format: biochemical; conditions: 20 µM GP-AMC substrate; for IC50: read-out: pIC50 (DPP4) (converted)
T2 construct: purchased R&D systems 9168-SE
Protocol: (§1) The PREP activity assay was performed using the FACS buffer (PBS including 1% FBS, Sigma-Aldrich, Cat# D8537). […] The DPP4 activity assay was performed in DPP assay buffer (25 mM Tris, pH 8.0).
(§2) Four parameter logistic (4PL) curve fitting and pIC50 calculations were performed using ActivityBase software.

recombinant human PREP = molecular target: T3, recombinant human PREP (Homo sapiens, UniProt P48147); experiment: PREP protease activity assay; format: biochemical; conditions: 50 µM Z-GP-AMC substrate
T3 construct: purchased R&D systems 4308-SE
T3 sequence (P48147 1-710): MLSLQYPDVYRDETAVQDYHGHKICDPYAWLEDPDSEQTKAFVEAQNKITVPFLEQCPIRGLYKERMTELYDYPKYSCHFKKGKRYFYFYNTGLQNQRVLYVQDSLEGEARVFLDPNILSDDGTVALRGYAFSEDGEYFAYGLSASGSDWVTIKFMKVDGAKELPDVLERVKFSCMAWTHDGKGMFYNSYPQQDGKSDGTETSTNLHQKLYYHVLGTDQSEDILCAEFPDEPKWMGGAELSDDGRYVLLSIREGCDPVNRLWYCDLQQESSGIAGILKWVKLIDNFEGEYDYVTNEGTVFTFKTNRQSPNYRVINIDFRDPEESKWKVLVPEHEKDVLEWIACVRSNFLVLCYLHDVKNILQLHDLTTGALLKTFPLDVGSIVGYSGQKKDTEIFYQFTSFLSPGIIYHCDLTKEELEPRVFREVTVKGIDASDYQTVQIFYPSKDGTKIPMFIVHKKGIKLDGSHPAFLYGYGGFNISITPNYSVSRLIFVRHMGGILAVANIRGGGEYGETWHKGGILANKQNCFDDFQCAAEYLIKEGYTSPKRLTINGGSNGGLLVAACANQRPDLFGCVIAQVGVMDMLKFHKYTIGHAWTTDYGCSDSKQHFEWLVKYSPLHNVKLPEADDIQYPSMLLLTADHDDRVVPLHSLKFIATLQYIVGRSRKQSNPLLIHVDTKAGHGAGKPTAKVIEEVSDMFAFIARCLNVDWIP
Protocol: as §1, §2

Human recombinant FAP = molecular target: T4, Human recombinant FAP (Homo sapiens, UniProt Q12884); experiment: FRET-based FAP protease activity assay (human); format: biochemical; design: purchased R&D systems 3715-SE; conditions: FRET-peptide substrate, 37°C; for IC50: read-out: pIC50 (Activity) (converted)
T4 sequence (Q12884 1-760): T1 sequence (Q12884 1-760)
Protocol: In order to determine the inhibitory activity a FRET-based FAP protease activity assay was established.
25 µL of a 30 µM substrate solution, diluted in assay buffer, was added. […] Four parameter logistic (4PL) curve fitting and pIC50 calculations were performed using ActivityBase software (IDBS).

T2 sequence (P27487 whole entry): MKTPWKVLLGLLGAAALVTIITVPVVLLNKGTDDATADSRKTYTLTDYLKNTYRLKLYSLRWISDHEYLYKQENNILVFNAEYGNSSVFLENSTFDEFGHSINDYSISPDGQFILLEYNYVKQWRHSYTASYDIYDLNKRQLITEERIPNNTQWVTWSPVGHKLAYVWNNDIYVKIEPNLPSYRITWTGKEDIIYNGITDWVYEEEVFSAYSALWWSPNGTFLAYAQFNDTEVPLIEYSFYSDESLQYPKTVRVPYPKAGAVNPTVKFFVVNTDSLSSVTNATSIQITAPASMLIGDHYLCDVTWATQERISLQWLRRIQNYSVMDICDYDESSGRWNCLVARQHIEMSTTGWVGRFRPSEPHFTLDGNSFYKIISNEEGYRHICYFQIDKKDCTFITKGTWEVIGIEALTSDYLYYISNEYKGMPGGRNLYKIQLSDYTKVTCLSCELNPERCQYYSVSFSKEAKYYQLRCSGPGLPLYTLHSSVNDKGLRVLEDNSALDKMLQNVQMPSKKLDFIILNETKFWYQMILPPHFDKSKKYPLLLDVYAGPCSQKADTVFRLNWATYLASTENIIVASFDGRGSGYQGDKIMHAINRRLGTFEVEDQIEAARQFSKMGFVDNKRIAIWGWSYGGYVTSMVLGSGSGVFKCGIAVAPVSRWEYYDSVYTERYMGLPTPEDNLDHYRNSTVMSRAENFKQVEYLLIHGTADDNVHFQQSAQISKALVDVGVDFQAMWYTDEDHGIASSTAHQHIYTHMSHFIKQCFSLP

SMILES | pIC50 (PREP) (recombinant human PREP) | IC50 [1] [nM] | IC50 (Recombinant human DPP4) [nM] | IC50 (recombinant human PREP) [nM] | IC50 (Human recombinant FAP) [nM] | pIC50 (FACS) [1] | pIC50 (DPP4) (Recombinant human DPP4) | pIC50 (Activity) (Human recombinant FAP)
O=C(O)CN1CCN(CC(=O)O)CCN(CC(=O)N2CCN(CCCOc3ccc4nccc(C(=O)NCC(=O)N5C[C@@H](F)C[C@H]5C(=O)c5nc6ccccc6o5)c4c3)CC2)CCN(CC(=O)O)CC1 [drawing 358] | 7.8 |  |  |  |  | 8.6 | <6 | 9
CS(=O)(=O)c1cccc(-c2ccc3c(C(=O)NCC(=O)N4CC(F)(F)C[C@H]4C#N)ccnc3c2)c1 [drawing 289] |  | 2 | > 1000 | > 1000 | 0.794 |  |  | 
O=C(O)CN1CCN(CC(=O)O)CCN(CC(=O)N2CCN(CCNC(=O)c3ccc(-c4ccc5nccc(C(=O)NCC(=O)N6C[C@@H](F)C[C@H]6C(=O)c6nc7ccccc7o6)c5c4)cc3)CC2)CCN(CC(=O)O)CC1 [drawing 360] | 7.3 |  |  |  |  | 7.6 | <6 | 8.5
N#C[C@@H]1CC(F)(F)CN1C(=O)CNC(=O)c1ccnc2ccc(-c3ccc(S(=O)(=O)CCCNC(=O)CN4CCN(CC(=O)O)CCN(CC(=O)O)CCN(CC(=O)O)CC4)cc3)cc12 | <6 |  |  |  |  | 9.2 | 6.7 | 9.1
O=C(NCC(=O)N1CCC[C@H]1C(=O)c1ncco1)c1ccnc2ccccc12 [drawing 297] |  | 12.6 | > 1000 | 0.631 | 6.31 |  |  | 
CS(=O)(=O)c1ccc(-c2ccc3c(C(=O)NCC(=O)N4CCC[C@H]4C#N)ccnc3c2)cc1 [drawing 290] |  | 6.31 | > 1000 | 794 | 1.58 |  |  | 
O=C(O)CN1CCN(CC(=O)O)CCN(CC(=O)NCCCNC(=O)c2ccc(-c3ccc4nccc(C(=O)NCC(=O)N5CCC[C@H]5B(O)O)c4c3)cc2)CCN(CC(=O)O)CC1 | 8.2 |  |  |  |  | 8.9 | <6 | 8.8
N#C[C@@H]1CC(F)(F)CN1C(=O)CNC(=O)c1cc[n+]([O-])c2ccc(OCCCN3CCN(C(=O)CN4CCN(CC(=O)O)CCN(CC(=O)O)CCN(CC(=O)O)CC4)CC3)cc12 |  |  |  |  |  | 8.5 | <6 | 9
N#C[C@@H]1CC(F)(F)CN1C(=O)CNC(=O)c1ccnc2ccc(-c3ccc(C(=O)NCCCNC(=O)CN4CCN(CC(=O)O)CCN(CC(=O)O)CCN(CC(=O)O)CC4)cc3)cc12 |  |  |  |  |  | 8.9 | <6 | 9.2
N#C[C@@H]1CCCN1C(=O)CNC(=O)c1ccnc2ccc(-c3ccc(C(=O)NCCCNC(=O)CN4CCN(CC(=O)O)CCN(CC(=O)O)CCN(CC(=O)O)CC4)cc3)cc12 |  |  |  |  |  | 8.7 | <6 | 9
N#C[C@@H]1CC(F)(F)CN1C(=O)CNC(=O)c1ccnc2ccc(-c3ccc(C(=O)NCCN4CCN(C(=O)CN5CCN(CC(=O)O)CCN(CC(=O)O)CCN(CC(=O)O)CC5)CC4)cc3)cc12 | <6 |  |  |  |  | 8.7 | <6 | 9.1
CS(=O)(=O)c1cccc(-c2ccc3nccc(C(=O)NCC(=O)N4CC(F)(F)C[C@H]4C#N)c3c2)c1 [drawing 288] |  | 1.58 | 794 | > 1000 | 0.631 |  |  | 
O=C(O)CN1CCN(CC(=O)O)CCN(CC(=O)N2CCN(CCNC(=O)c3ccc(-c4ccc5c(C(=O)NCC(=O)N6CCC[C@H]6C(=O)c6nc7ccccc7o6)ccnc5c4)cc3)CC2)CCN(CC(=O)O)CC1 [drawing 355] | 8.7 |  |  |  |  | 8.4 | <6 | 8.7
N#C[C@@H]1CC(F)(F)CN1C(=O)CNC(=O)c1ccnc2ccc(-c3ccc(C(=O)NCCCNC(=O)CN4CCN(CC(=O)O)CCN(CC(=O)O)CCN(CC(=O)O)CC4)nc3)cc12 | <6 |  |  |  |  | 8.8 | <6 | 9.1

Further lines, with some results ahead:

pIC50 (PREP) (recombinant human PREP) | IC50 [1] [nM] | IC50 (Recombinant human DPP4) [nM] | IC50 (recombinant human PREP) [nM] | IC50 (Human recombinant FAP) [nM] | SMILES | pIC50 (FACS) [1] | pIC50 (DPP4) (Recombinant human DPP4) | pIC50 (Activity) (Human recombinant FAP)
 | 63.1 | > 1000 | 15.8 | 39.8 | O=C(NCC(=O)N1CCC[C@H]1C(=O)c1nc2ccccc2s1)c1ccnc2ccccc12 |  |  | 
6.7 |  |  |  |  | O=C(O)CN1CCN(CC(=O)O)CCN(CC(=O)N2CCN(CCCOc3ccc4nccc(C(=O)NCC(=O)N5CC(F)(F)C[C@H]5C(=O)c5nc6ccccc6o5)c4c3)CC2)CCN(CC(=O)O)CC1 | 7.9 | <6 | 8.6
8.6 |  |  |  |  | O=C(O)CN1CCN(CC(=O)O)CCN(CC(=O)N2CCN(CCCOc3ccc4nccc(C(=O)NCC(=O)N5CCC[C@H]5C(=O)c5nc6ccccc6o5)c4c3)CC2)CCN(CC(=O)O)CC1 [drawing 357] | 8.6 | <6 | 8.9
 | 3.98 | > 1000 | > 1000 | 1 | CS(=O)(=O)c1cccc(-c2ccc3nccc(C(=O)NCC(=O)N4CCC[C@H]4C#N)c3c2)c1 |  |  | 
7.9 |  |  |  |  | O=C(O)CN1CCN(CC(=O)O)CCN(CC(=O)N2CCN(CCNC(=O)c3ccc(-c4ccc5nccc(C(=O)NCC(=O)N6CCC[C@H]6C(=O)c6nc7ccccc7o6)c5c4)cn3)CC2)CCN(CC(=O)O)CC1 [drawing 361] | 7.6 | <6 | 8.4
8.4 |  |  |  |  | O=C(O)CN1CCN(CC(=O)O)CCN(CC(=O)N2CCN(CCNC(=O)c3cccc(-c4ccc5c(C(=O)NCC(=O)N6CCC[C@H]6C(=O)c6nc7ccccc7o6)ccnc5c4)c3)CC2)CCN(CC(=O)O)CC1 [drawing 352] | 8.4 | <6 | 8.7
 | 100 | > 1000 | 25.1 | 50.1 | O=C(NCC(=O)N1CCC[C@H]1C(=O)c1nccs1)c1ccnc2ccccc12 |  |  | 
 | 1 | > 1000 | > 1000 | 0.631 | CS(=O)(=O)c1ccc(-c2ccc3nccc(C(=O)NCC(=O)N4CC(F)(F)C[C@H]4C#N)c3c2)cc1 |  |  | 
7.8 |  |  |  |  | O=C(O)CN1CCN(CC(=O)O)CCN(CC(=O)N2CCN(CCNC(=O)c3cccc(-c4ccc5nccc(C(=O)NCC(=O)N6CCC[C@H]6C(=O)c6nc7ccccc7o6)c5c4)c3)CC2)CCN(CC(=O)O)CC1 [drawing 353] | 8.5 | <6 | 8.6
 | 3.98 | > 1000 | > 1000 | 0.631 | CS(=O)(=O)c1ccc(-c2ccc3nccc(C(=O)NCC(=O)N4CCC[C@H]4C#N)c3c2)cc1 |  |  | 
8.2 |  |  |  |  | O=C(O)CN1CCN(CC(=O)O)CCN(CC(=O)N2CCN(CCNC(=O)c3ccc(-c4ccc5nccc(C(=O)NCC(=O)N6CCC[C@H]6C(=O)c6nc7ccccc7o6)c5c4)cc3)CC2)CCN(CC(=O)O)CC1 [drawing 354] | 7.9 | <6 | 8.4
